The values below come from patent publication US11331271B2, “Buccal, sublingual and intranasal delivery of fospropofol” (The Johns Hopkins University, priority 2016, dated 2022).

Where two headings read alike, the source gives them in different places. Bounds are passed on as bounds.

Data set [1] in a line: Human Study 1: absolute bioavailability, plasma pharmacokinetics of fospropofol and propofol. In kind it is in vivo. Conditions: for Tmax / bioavailability / half-life: male, human, plasma; for half-life: read-out: mean t1/2 of fospropofol (converted). The procedure: (§1) In human study 1, fospropofol disodium was formulated as a sterile aqueous solution at a concentration of 20 mg/mL. Each vial provided contained 20 mL of solution, suitable for intravenous injection. Fospropofol was administered as a single dose of 400 mg orally, directly into the duodenum by gastroscopy or intravenously over 10 min. In human study 2, fospropofol disodium in capsules (200 mg) or matching placebo was administered orally.
The first study was an absolute bioavailability study of fospropofol conducted at a single center (PRA Health Sciences) in Groningen, Netherlands, as a three-way crossover study. The study enrolled 7 healthy male volunteers between 18 and 45 years of age inclusive, with a body mass index between 18 and 28 kg/m^2. Subjects stayed in the clinical unit for three consecutive periods of 3 days each, with a 3-day washout, between periods. For six subjects, the order of the administration routes was as follows—period 1: PO, period 2: ID, and period 3: IV. For one subject the order of the administration routes was the following—period 1: ID, period 2: IV and period 3: PO. In this study a single dose of 400 mg was administered by each route. Blinding and placebo control was impractical due to the requirement of unsedated endoscopic administration of fospropofol into the duodenum. Safety and overall pharmacodynamic effect was evaluated based on adverse events, vital signs, electrocardiogram (ECG), Modified Observer's Assessment of Alertness/Sedation (OAA/S) score, clinical laboratory tests, and physical examination.
In the first study, 6 mL blood samples were collected following the PO and ID fospropofol treatment periods at times of pre-dose, 5, 10, 20, 30, 45, 60, 90 min and 2, 4, 6 and 9 h post-dose and in the IV fospropofol treatment period at pre-dose and at 5, 10, 15, 20, 30, 45, 60 and 120 min post-dose. In the second study a 6 mL blood sample was collected following each fospropofol PO dose (200, 600, 1,000 and 1,200 mg) at pre-dose, 5, 10, 20, 30, 45, 60, 90 min and 2, 4, 6 and 9 h post-dose. The blood was collected in a sodium heparin vacutainer tube containing 60 mg SOV, inverted approximately eight times to dissolve SOV and placed on dry ice until it was centrifuged at 3,000 rpm for 10 min at 4° C. to harvest plasma. Plasma samples were then stored at −20° C. until analysis.
The parameters were summarized using descriptive statistics.

Data set [2] in a line: Human Study 2: single ascending oral dose, plasma pharmacokinetics. In kind it is in vivo. The procedure:
as §1
A second single ascending dose study was subsequently performed to assess the safety, tolerability, and pharmacokinetics of oral administration of fospropofol as a capsule. This was a double-blind, randomized, crossover, placebo-controlled, single ascending dose study. Ten healthy volunteers were enrolled, 6 males and 4 females between 18 and 45 years of age inclusive with a body mass index between 18 and 28 kg/m^2. Each subject received four ascending oral doses of fospropofol disodium (200, 600, 1,000 and 1,200 mg) and one of placebo. Placebo was administered randomly, in one of the five periods. Subjects stayed in the clinical research unit over 3 days per treatment for five consecutive treatments. […] Pharmacokinetic parameters, safety and pharmacodynamic effect were assessed in a manner similar to that in Study 1 described above. […]

Data set [3] can be described thus: Stability in rat plasma at −20° C. In kind it is in vitro ADME.
Procedure: (§2) The SPE cartridges were conditioned by gravity with methanol and 1.0 M ammonium acetate solution in water. The plasma samples with internal standard were loaded on the cartridges, washed with water and 10% methanol/water and eluted with methanol. The tubes were then evaporated under nitrogen and the residues reconstituted with 50/50 methanol/25 mM ammonium acetate in deionized water. The sample extract was then injected onto a reversed phase HPLC Zorbax Eclipse XDB-C18 column. The separated analytes were detected using tandem mass spectrometry (MS/MS) detection. […] The assays were linear with correlation coefficient of (R^2)>0.99 over the range of 10-2,000 ng/mL for rat plasma and 5-1,000 ng/mL for human plasma.
(§3) In brief, 4-[tert-octyl] phenol, (internal standard) was added to the plasma samples (0.05 mL for rat or 0.2 mL for human) and extracted using a 3M Empore C-18-SD 4 mm SPE cartridge (Millipore, Billerica, Mass., USA). […] The final eluants (˜0.3 mL) were diluted with 0.3 mL of water, and injected onto an HPLC system equipped with a C-18 analytical column (5 μm, 150×3.9 mm) and fluorescence detector set at excitation and emission wave lengths of 275 and 310 nm, respectively. […] All rat and human study samples in this study were analyzed without exceeding the stability sample integrity during validation of the methods.
The format of data set [4] is in vitro ADME.
Procedure: as §2, §3
Data set [5] is described as follows: Intranasal delivery of fospropofol in monkeys: plasma and CSF levels. In kind it is in vivo, monkey. Here is the method: More particularly, in this example, monkeys were dosed with 50 mg fospropofol by intranasal administration. Plasma and cerebrospinal fluid (CSF) were collected before treatment (graphed as t=0), 15 minutes, 30 minutes, 1 hr, and 2 hr. Samples were analyzed for propofol and fospropofol by LC/MS. […] These samples are near the limit of quantification. FIGS. 11A and 11B show the data in nM and ng/mL scales, respectively.

Data set [6] in a line: Buccal delivery of fospropofol in monkeys: plasma and CSF levels. It counts as in vivo, monkey. The procedure:
In this example, monkeys were dosed with 50 mg fospropofol by buccal administration. Plasma and CSF were collected before treatment (graphed as t=0), 15 minutes, 30 minutes, 1 hr and 2 hr. Samples were analyzed for propofol and fospropofol by LCMS.

By Tmax is commonly meant the time at which the peak concentration occurs. A word on the bioavailability: it is dose-corrected exposure relative to a reference, in per cent. For orientation: Cmax means the maximum level reached in the sampled fluid or tissue.

`CC(C)c1cccc(C(C)C)c1OCOP(=O)(O)O` [fospropofol]: the entries for the “fospropofol Cmax, fold lower than IV” value in data set [1] (400 mg ID vs IV) and in data set [1] (400 mg PO vs IV) were roughly 534 fold and “approximately 88 fold”, respectively. The “plasma fospropofol by non-intravenous routes” value in data set [1] (400 mg PO or ID) is on record as “Almost no plasma fospropofol was detected”. Besides, the Tmax worked out at 10.2 min in data set [1] (other: intraduodenal, 400 mg ID, read-out: Tmax of fospropofol) and 4.8 min in data set [1] (400 mg PO, read-out: Tmax of fospropofol). In addition, the bioavailability in data set [1] (other: intraduodenal, 400 mg ID, read-out: absolute bioavailability of fospropofol) is 0.1%; in data set [1] (400 mg PO, read-out: absolute bioavailability of fospropofol), 1%. Also, the half-life in data set [1] (other: intraduodenal, 400 mg ID) is 16.8 min; in data set [1] (400 mg IV), 16.8 min; in data set [1] (400 mg PO), 19.2 min. Besides, the “fospropofol exposure vs dose” value in data set [2] (PO capsules 200-1,200 mg) is on record as “dose related increase”. For the same molecule, in data set [3], the “time stable at −20° C. in rat plasma” value was 98 days. Further, the “time stable at −20° C. in human plasma” value in data set [4] was 464 days. In addition, in data set [5] (50 mg intranasal), the “fospropofol (prodrug) in plasma after intranasal administration” value is given as “appreciable plasma concentrations of prodrug”. The “fospropofol in CSF samples” value in data set [5] (50 mg intranasal, only two samples) is “low nanomolar range”. Besides, the “time of fospropofol peak in plasma” value in data set [6] (50 mg buccal) lay within 30 to 60 min. In addition, in data set [6] (50 mg buccal, 2 hr), the “fospropofol plasma level by 2 hr” value is “below the limit of quantification”. Besides, the concentration at 15 min in data set [6] (monkey, CSF, other: buccal, 50 mg buccal, 15 minutes, read-out: CSF fospropofol, one high point) is roughly 850 nM. Moreover, the Cmax in data set [6] (monkey, plasma, 50 mg buccal) is roughly 150 nM.
As to `CC(C)c1cccc(C(C)C)c1O` [propofol, 2,6-diisopropylphenol], the “bioavailability (F) of propofol based on AUC(0-∞)” value turned out to be 37% in data set [1] (fospropofol 400 mg ID) and 30% in data set [1] (fospropofol 400 mg oral). The Tmax was determined as 10.2 min in data set [1] (other: intraduodenal, fospropofol 400 mg ID) and 19.8 min in data set [1] (fospropofol 400 mg PO). In data set [1] (po, 400 mg, summary in discussion), the bioavailability is no less than 30%. Further, the “propofol exposure vs dose” value in data set [2] (PO fospropofol capsules 200-1,200 mg) is “dose related increase”. For the same molecule, the “time stable at −20° C. in rat plasma” value in data set [3] is given as 65 days. The “time stable at −20° C. in human plasma” value in data set [4] turned out to be 347 days. The “propofol in plasma samples” value in data set [5] (50 mg fospropofol intranasal, up to 2 hr) is listed as “not quantifiable”. Besides, the “highest propofol level in plasma” value in data set [6] (50 mg fospropofol buccal, at 2 hours) is reported as “about 500 nM”. For the same molecule, the “propofol in CSF” value in data set [6] (50 mg fospropofol buccal, limit of quantitation 10 nM) was “only 2 samples are above the limit of quantitation”.
